# Patent US10322995B2, “Substituted cyano cycloalkyl penta-2,4-dienes, cyano cycloalkyl pent-2-en-4-ynes, cyano heterocyclyl penta-2,4-dienes and cyano heterocyclyl pent-2-en-4-ynes as active substances against abiotic plant stress” (BAYER CROPSCIENCE AKTIENGESELLSCHAFT, priority 2014, dated 2019)
# Read-outs that look alike come from different tables or passages of the source.
# Key:
# [1] = target: T1, phosphatase ABI1 via the co-regulator RCAR11/PYR1 (Arabidopsis thaliana, UniProt O49686+P49597); experiment: In vitro assay: inhibition of the phosphatase ABI1 via the co-regulator RCAR11/PYR1, MUP dephosphorylation, fluorescence; format: biochemical; set-up: inhibition: dose or concentration left out as unconfirmed; conditions: for ABI1 inhibition: concentration of 5 mM of the substance in a solution of DMSO and water; for inhibition: read-out: ABI1 inhibition
# T1 sequence (O49686 1-191): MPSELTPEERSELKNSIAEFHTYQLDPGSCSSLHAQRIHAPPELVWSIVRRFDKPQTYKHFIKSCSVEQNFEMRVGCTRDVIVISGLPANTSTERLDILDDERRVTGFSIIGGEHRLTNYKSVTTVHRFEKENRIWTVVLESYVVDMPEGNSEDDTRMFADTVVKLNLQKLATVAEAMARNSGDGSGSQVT
# T1 sequence (P49597 1-434): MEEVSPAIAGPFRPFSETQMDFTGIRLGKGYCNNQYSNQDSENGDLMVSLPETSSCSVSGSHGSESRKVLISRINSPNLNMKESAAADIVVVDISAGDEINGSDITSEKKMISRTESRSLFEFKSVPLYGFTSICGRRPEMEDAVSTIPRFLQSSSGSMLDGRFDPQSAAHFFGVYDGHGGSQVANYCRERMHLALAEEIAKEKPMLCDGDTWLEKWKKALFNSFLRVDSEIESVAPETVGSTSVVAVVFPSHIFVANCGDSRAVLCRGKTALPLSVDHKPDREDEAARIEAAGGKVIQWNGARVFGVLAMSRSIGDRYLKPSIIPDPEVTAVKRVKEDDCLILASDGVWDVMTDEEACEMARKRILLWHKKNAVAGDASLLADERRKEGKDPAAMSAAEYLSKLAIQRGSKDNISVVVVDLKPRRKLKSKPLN
# Excerpt: Effects of the phytohormone abscisic acid (ABA) on the behaviour of plants under abiotic stress and the mechanism of action of ABA are described in the literature (cf. Abrams et al, WO97/23441, Cutler, Park et al. Science, 2009, 324, 1068; Grill et al. Science, 2009, 324, 1064; Tanokura et al. Biophysics, 2011, 7, 123; Schroeder et al. Plant J. 2010, 61, 290). Therefore, it is possible with the aid of a suitable in vitro test system to derive a correlation between the action of ABA and the stress response of a plant under abiotic stress. Under drought stress, plants form the phytohormone abscisic acid (ABA). This binds, along with a co-regulator (Regulatory Component of ABA-Receptor=RCAR according to Grill et al. Science, 2009, 324, 1064 or PYR/PYL according to Cutler et al. Science, 2009, 324, 1068), to a phosphatase (e.g. ABI1, a type 2C protein phosphatase, also abbreviated to PP2C) and inhibits its activity. As a result, a “downstream” kinase (e.g. SnRK2) is no longer dephosphorylated. This kinase, which is thus active, via phosphorylation of transcription factors (e.g. AREB/ABF, vgl. Yoshida et al., Plant J. 2010, 61, 672), switches on a genetic protection programme to increase drought stress tolerance.
# The assay described hereinafter utilizes the inhibition of the phosphatase ABI1 via the co-regulator RCAR11/PYR1 aus Arabidopsis thaliana.
# For the determination of activity, the dephosphorylation of 4-methylumbelliferyl phosphate (MUP) was measured at 460 nm. The in vitro assay was conducted in Greiner 384-well PS microplates F-well, using two controls: a) dimethyl sulphoxide (DMSO) 0.5% (f.c.) and b) 5 μM (f.c.) abscisic acid (ABA). […] The substance solution thus obtained, if necessary, was stirred with esterase from porcine liver (EC 3.1.1.1) at room temperature for 3 h and centrifuged at 4000 rpm for 30 min. A total volume of 45 μl was introduced into each cavity of the microplate, having the following composition: • 1) 5 μl of substance solution, i.e. a) DMSO 5% or b) abscisic acid solution or c) the corresponding example compound of the general formula (I) dissolved in 5% DMSO. • 2) 20 μl of enzyme buffer mix, composed of a) 40% by vol. of enzyme buffer (10 ml contain equal proportions by volume of 500 mM Tris-HCl pH8, 500 mM NaCl, 3.33 mM MnCl2, 40 mM dithiothreitol (DTT)), b) 4% by vol. of ABI1 dilution (protein stock solution was diluted so as to give, after addition, a final concentration in the assay of 0.15 μg ABI1/well), c) 4% by vol. of RCAR11 dilution (enzyme stock was diluted so as to give, on addition of the dilution to the enzyme buffer mix, a final concentration in the assay of 0.30 μg enzyme/well), d) 5% by vol. of Tween20 (1%), e) 47% by vol. H2O bi-dist. • 3) 20 μl of substrate mix, composed of a) 10% by vol. of 500 mM Tris-HCl pH8, b) 10% by vol. of 500 mM NaCl, c) 10% by vol. of 3.33 mM MnCl2, d) 5% by vol. of 25 mM MUP, 5% by vol. of Tween20 (1%), 60% by vol. of H2O bi-dist.
# Enzyme buffer mix and substrate mix were made up 5 minutes prior to the addition and warmed to a temperature of 35° C. On completion of pipetting of all the solutions and on completion of mixing, the plate was incubated at 35° C. for 20 minutes. Finally, a relative fluorescence measurement was made at 35° C. with a BMG Labtech “POLARstar Optima” microplate reader using a 340/10 nm excitation filter and a 460 nm emission filter. The efficacy of the compounds of the general formula (I) is reported in the table which follows using abscisic acid (No. 64) as comparative substance according to the following classification: ++++ (inhibition≥90%), +++ (90%>inhibition≥70%), ++ (70%>inhibition≥50%), +(50%>inhibition≥30%).
# Effects of selected compounds of the general formula (I) in the above-described in vitro assay at a concentration of 5 mM of the substance of the general formula (I) in question in a solution of DMSO and water: […]
# Brassica napus (BRSNS) = experiment: In vivo analyses Part B: drought stress, appearance vs stressed control plants in categories (BRSNS); set-up: key: 0: no positive effect; 10: slight positive effect; 20: clear positive effect; 30: strong positive effect; conditions: spray application 250 g/ha, category vs stressed control plants, 2-3 pots
# Procedure: Seeds of monocotyledonous and dicotyledonous crop plants were sown in sandy loam in plastic pots, covered with soil or sand and cultivated in a greenhouse under good growth conditions. The test plants were treated at the early leaf stage (BBCH10-BBCH13). To assure uniform water supply before commencement of stress, the potted plants were supplied with water by dam irrigation prior to substance application. The inventive compounds, formulated in the form of wettable powders (WP), were sprayed onto the green parts of the plants as an aqueous suspension at an equivalent water application rate of 600 I/ha with addition of 0.2% wetting agent (e.g. agrotin). Substance application was followed immediately by stress treatment of the plants. Drought stress was induced by gradual drying out under the following conditions: “Day”: 14 hours with illumination at 26-30° C. “Night”: 10 hours without illumination at 18-20° C. The duration of the respective stress phases was guided mainly by the condition of the stressed control plants. It was ended (by re-irrigating and transfer to a greenhouse with good growth conditions) as soon as irreversible damage was observed on the stressed control plants. The end of the stress phase was followed by an about 4-7-day recovery phase, during which the plants were once again kept under good growth conditions in a greenhouse. The duration of the recovery phase was guided mainly by when the trial plants had attained a state which enabled visual scoring of potential effects, and was therefore variable. Once this juncture had been reached, the appearance of the plants treated with test substances was recorded in comparison to the stressed control plants by the following categories: [table] In order to rule out any influence on the effects observed by any fungicidal or insecticidal action of the test compounds, it was additionally ensured that the tests proceeded without fungal infection or insect infestation. For each substance and dosage, 2-3 pots were treated and evaluated. BRSNS=Brassica napus
# [2] = MUP dephosphorylation, fluorescence 460 nm
"ABI1 inhibition [1, 2]",Compound,further results
++++ (inhibition≥90%),CCC(C#CC(O)(c1cccc(F)c1)C1(C#N)CC1)=CC(=O)OC (racemic) [I.1-768],
+++ (90%>inhibition≥70%),CCCC(C#CC(O)(c1cccc(F)c1)C1(C#N)CC1)=CC(=O)O (racemic) [I.1-773],
+++ (90%>inhibition≥70%),CCOC(=O)C=C(C#CC(O)(c1cccc(F)c1)C1(C#N)CC1)C(F)(F)F (racemic) [I.1-783],
+++ (90%>inhibition≥70%),CCOC(=O)C=C(C)C#CC(O)(c1cccc(F)c1)C1(C#N)CC1 (racemic) [I.1-792],
++++ (inhibition≥90%),CCC(C#CC(O)(c1ccc(C)cc1)C1(C#N)CC1)=CC(=O)OC (racemic) [I.1-798],
++++ (inhibition≥90%),CCC(C#CC(O)(c1ccc(C)cc1)C1(C#N)CC1)=CC(=O)OCCOC (racemic) [I.1-801],
+++ (90%>inhibition≥70%),CCOC(=O)C=C(C#CC(O)(c1ccc(C)cc1)C1(C#N)CC1)C(F)(F)F (racemic) [I.1-813],
+++ (90%>inhibition≥70%),CCOC(=O)C=C(C)C#CC(O)(c1ccc(C)cc1)C1(C#N)CC1 (racemic) [I.1-822],
+++ (90%>inhibition≥70%),CCCOC(=O)C=C(C#CC(O)(c1ccc(C)cc1)C1(C#N)CC1)C(F)(F)F (racemic) [I.1-888],
++++ (inhibition≥90%),CCOC(=O)/C=C(\C#CC(O)(c1ccccc1)C1(C#N)CC1)CC (centres unmarked) [I.1-203],
++++ (inhibition≥90%),CC/C(C#CC(O)(c1ccc(F)cc1)C1(C#N)CC1)=C/C(=O)OC (centres unmarked) [I.1-502],Effect (BRSNS) (Brassica napus (BRSNS)): 20-30
++++ (inhibition≥90%),COC(=O)/C=C(\C#CC(O)(c1ccc(F)cc1)C1(C#N)CC1)C(F)(F)F (centres unmarked) [I.1-520],
++ (70%>inhibition≥50%),CC/C(C#CC(O)(c1ccc(F)cc1)C1(C#N)CC1)=C/C(=O)NC1CC1 (centres unmarked) [I.1-557],
++ (70%>inhibition≥50%),CC/C(C#CC(O)(c1ccc(F)cc1)C1(C#N)CC1)=C/C(=O)NC(C)C (centres unmarked) [I.1-558],
++++ (inhibition≥90%),CC/C(C#CC(O)(c1ccccc1)C1(C#N)CC1)=C/C(=O)OCCOC (centres unmarked) [I.1-610],
++++ (inhibition≥90%),CCCOC(=O)/C=C(\C#CC(O)(c1ccc(F)cc1)C1(C#N)CC1)CC (centres unmarked) [I.1-613],

# The remaining lines, values behind:
Compound,"ABI1 inhibition [1, 2]",further results
CCOC(=O)C=C(C#CC(O)(C(CC)CC)C1(C#N)CC1)C(F)(F)F (racemic) [I.1-723],+++ (90%>inhibition≥70%),
COC(=O)C=C(C#CC(O)(c1cccc(F)c1)C1(C#N)CC1)C(F)(F)F (racemic) [I.1-782],+++ (90%>inhibition≥70%),
CCOC(=O)C=C(C=CC(O)(C(C)C)C1(C#N)CC1)C1CCCC1 (racemic) [I.2-130],+++ (90%>inhibition≥70%),
CC(C=CC(O)(C(C)C)C1(C#N)CC1)=CC(=O)O (racemic) [I.2-134],++++ (inhibition≥90%),
COC(=O)C=C(C=CC(O)(C1CCCCC1)C1(C#N)CC1)C(F)(F)F (racemic) [I.2-581],++++ (inhibition≥90%),
CCCOC(=O)C=C(C=CC(O)(C1CCCCC1)C1(C#N)CC1)C(F)(F)F (racemic) [I.2-582],++++ (inhibition≥90%),
CCOC(=O)/C=C(/C)C#CC(C)(O)C1(C#N)CC1 (centres unmarked) [I.1-36],+++ (90%>inhibition≥70%),
CC/C(C#CC(O)(C(C)C)C1(C#N)CC1)=C/C(=O)OC (centres unmarked) [I.1-102],++++ (inhibition≥90%),Effect (BRSNS) (Brassica napus (BRSNS)): 30
COC(=O)/C=C(\C#CC(O)(C(C)C)C1(C#N)CC1)C(F)(F)F (centres unmarked) [I.1-120],+++ (90%>inhibition≥70%),Effect (BRSNS) (Brassica napus (BRSNS)): 20
COC(=O)/C=C(\C#CC(O)(c1ccccc1)C1(C#N)CC1)C(F)(F)F (centres unmarked) [I.1-220],++++ (inhibition≥90%),
COC(=O)/C=C(\C#CC(O)(C1CC1)C1(C#N)CC1)C(F)(F)F (centres unmarked) [I.1-632],++++ (inhibition≥90%),
COC(=O)/C=C(\C#CC(O)(C1CCCCC1)C1(C#N)CC1)C(F)(F)F (centres unmarked) [I.1-692],+++ (90%>inhibition≥70%),
CCOC(=O)/C=C(/C)C#CC(O)(c1ccccc1)C1(C#N)CC1 (centres unmarked) [I.1.236],,"inhibition [1, 2]: > 90%"
"CCC(=C/C(=O)OC)/C=C/C(O)(C1CCCCC1)C1(C#N)CC1 (centres unmarked) [I.2-579, Methyl (2Z,4E)-6-(1-cyanocyclopropyl)-6-cyclohexyl-3-ethyl-6-hydroxyhexa-2,4-dienoate]",,"inhibition [1, 2]: > 90%"
"CCC(CC)C(O)(/C=C/C(=C\C(=O)OC)C(F)(F)F)C1(C#N)CC1 (centres unmarked) [I.2-585, Methyl (2E,4E)-6-(1-cyanocyclopropyl)-7-ethyl-6-hydroxy-3-(trifluoromethyl)nona-2,4-dienoate]",,"inhibition [1, 2]: > 90%"
"CC1=CC(=O)CC(C)(C)[C@@]1(O)/C=C/C(C)=C\C(=O)O [abscisic acid, reference compound]",,inhibition [1]: > 90%
